Reference: publication PMC2248166, “Quantitative peptide binding motifs for 19 human and mouse MHC class I molecules derived using positional scanning combinatorial peptide libraries” (Immunome Research, 2008)
Where a SMILES comes first, the peptide text is derived from it.

The molecules below were run against HLA B*1501 (Homo sapiens, UniProt P01889, A329T/A93T/A95T/C349S/D201E/D98Y/E187L/E204Q/E69M/E70A/K202T/N87E/Q94N/R155S/R180W/S121R/S35A/S48A/V306I/V36M/Y140S/Y91S) (assay: biochemical).
Type: binding

Going from `CC[C@H](C)[C@H](NC(=O)[C@@H](N)CO)C(=O)N[C@@H](CCCCN)C(=O)N[C@@H](CC(N)=O)C(=O)N[C@@H](CC(C)C)C(=O)N[C@H](C(=O)N[C@@H](CO)C(=O)N[C@@H](CCC(N)=O)C(=O)N[C@@H](Cc1ccccc1)C(=O)O)C(C)C` [3102.0951] (H-SIKNLVSQF-OH) to `CC[C@H](C)[C@H](NC(=O)[C@H](CCC(=O)O)NC(=O)[C@@H](N)CCC(=O)O)C(=O)N[C@@H](CO)C(=O)N[C@H](C(=O)N[C@@H](CO)C(=O)N[C@@H](CC(C)C)C(=O)N[C@@H](CO)C(=O)N[C@@H](Cc1ccccc1)C(=O)O)[C@@H](C)O` [3102.0958] (H-EEISTSLSF-OH), the IC50 falls from 25 nM to 2.1 nM (12-fold).

`CC(C)C[C@H](NC(=O)[C@H](Cc1ccc(O)cc1)NC(=O)[C@H](Cc1ccccc1)NC(=O)[C@@H](NC(=O)[C@H](CC(N)=O)NC(=O)[C@H](CCCCN)NC(=O)[C@H](CO)NC(=O)[C@@H](N)CC(C)C)[C@@H](C)O)C(=O)N[C@@H](Cc1ccccc1)C(=O)O` [3102.0952] (H-LSKNTFYLF-OH) and `CC[C@H](C)[C@H](NC(=O)[C@@H](NC(=O)[C@H](Cc1ccccc1)NC(=O)[C@H](CCCCN)NC(=O)[C@H](CCC(N)=O)NC(=O)[C@@H](N)CCSC)[C@@H](C)O)C(=O)N[C@@H](CC(C)C)C(=O)N[C@@H](CCC(=O)O)C(=O)N[C@@H](Cc1ccc(O)cc1)C(=O)O` [3102.0953] (H-MQKFTILEY-OH) are within 1.5-fold of each other in IC50: 14 nM for the first, 10 nM for the second.

Going from `CC[C@H](C)[C@H](NC(=O)[C@H](CCCNC(=N)N)NC(=O)[C@H](Cc1ccc(O)cc1)NC(=O)[C@H](CCC(N)=O)NC(=O)[C@@H](NC(=O)[C@@H](N)CC(C)C)C(C)C)C(=O)N[C@@H](CC(C)C)C(=O)N1CCC[C@H]1C(=O)N[C@@H](CCSC)C(=O)O` [3102.0954] (H-LVQYRILPM-OH) to `CC[C@H](C)[C@H](NC(=O)[C@H](CC(C)C)NC(=O)[C@H](CC(=O)O)NC(=O)[C@H](CCCNC(=N)N)NC(=O)[C@H](CCSC)NC(=O)[C@@H](N)CC(N)=O)C(=O)N[C@H](C(=O)N[C@H](C(=O)N[C@@H](Cc1ccccc1)C(=O)O)[C@@H](C)O)C(C)C` [3102.0975] (H-NMRDLIVTF-OH), the IC50 falls from 63 nM to 8.3 nM (7.6-fold). The second is the more potent here.

`CC(C)C[C@H](NC(=O)[C@H](CC(N)=O)NC(=O)[C@H](C)NC(=O)[C@H](CO)NC(=O)[C@@H](N)CC(C)C)C(=O)N[C@@H](Cc1ccccc1)C(=O)N[C@@H](CCC(=O)O)C(=O)N[C@@H](CO)C(=O)N[C@@H](CCC(N)=O)C(=O)O` [3102.0959] (H-LSANLFESQ-OH) and `CC(C)C[C@H](NC(=O)[C@@H](N)CC(C)C)C(=O)N[C@@H](CO)C(=O)N[C@@H](CCCNC(=N)N)C(=O)N[C@@H](Cc1ccc(O)cc1)C(=O)N[C@@H](CC(=O)O)C(=O)N[C@@H](CCC(=O)O)C(=O)N[C@@H](Cc1c[nH]cn1)C(=O)N[C@@H](Cc1ccccc1)C(=O)O` [3102.0976] (H-LLSRYDEHF-OH) are within 1.5-fold of each other in IC50: 45 nM for the first, 54 nM for the second.

Going from `C[C@H](NC(=O)[C@H](CO)NC(=O)[C@@H](N)CCCNC(=N)N)C(=O)N[C@@H](CC(N)=O)C(=O)N[C@H](C(=O)N[C@@H](CO)C(=O)N[C@@H](C)C(=O)N1CCC[C@H]1C(=O)N[C@@H](Cc1ccccc1)C(=O)O)[C@@H](C)O` [3102.0964] (H-RSANTSAPF-OH) to `CC[C@H](C)[C@H](NC(=O)CNC(=O)[C@@H](NC(=O)[C@H](CCCCN)NC(=O)[C@@H](NC(=O)[C@@H](N)CCC(=O)O)[C@@H](C)CC)[C@@H](C)O)C(=O)N[C@@H](CO)C(=O)N[C@@H](CO)C(=O)N[C@@H](Cc1ccccc1)C(=O)O` [3102.0969] (H-EIKTGISSF-OH), the IC50 rises from 0.68 nM to 90 nM (130-fold). The first is the more potent here.

First: CC[C@H](C)[C@H](NC(=O)[C@@H](N)CCC(=O)O)C(=O)N[C@@H](Cc1ccccc1)C(=O)N[C@@H](CCCCN)C(=O)N[C@@H](Cc1c[nH]cn1)C(=O)N[C@@H](CC(C)C)C(=O)N[C@H](C(=O)N[C@@H](Cc1ccccc1)C(=O)N[C@@H](Cc1ccccc1)C(=O)O)C(C)C [3102.0972] (H-EIFKHLVFF-OH)
Second: CSCC[C@H](NC(=O)[C@H](Cc1c[nH]cn1)NC(=O)[C@H](CCC(=O)O)NC(=O)[C@H](Cc1ccccc1)NC(=O)[C@H](Cc1ccc(O)cc1)NC(=O)CNC(=O)[C@H](CCCNC(=N)N)NC(=O)[C@H](CO)NC(=O)[C@@H](N)CCSC)C(=O)O [3102.0982] (H-MSRGYFEHM-OH)
The IC50 of the first is 2.6-fold lower: 12 nM for the first, 31 nM for the second.
